{"source": "patent US20090024021A1", "about": "“Methods and Systems for Using Transcranial Magnetic Stimulation and Functional Brain Mapping for Examining Cortical Sensitivity, Brain Communication, and Effects of Medication” (priority 2002, published 2009)", "key": {"[1]": {"test_system": "left primary motor cortex", "assay": "Resting motor threshold (RMT) by TMS with EMG of abductor pollicis brevis", "type": "in vivo, human", "method": "Study design: We performed a randomized, double-blind, crossover trial involving two visits at least one week apart (FIG. 8). […] Serum LTG levels, RMTs, and interleaved TMS/phMRI images during both motor and then prefrontal TMS were then gathered for each subject. One week later they received LTG or placebo again, followed by identical RMT and interleaved TMS/phMRI studies.\nGeneral Procedure: After arriving at the laboratory in the early afternoon, baseline RMT was determined and baseline plasma levels of LTG were drawn. They were then given a single oral dose of 325 mg LTG or placebo. They then waited quietly for 3 hours. Three hours after taking the oral pill, RMT was determined and serum plasma levels were again drawn.\nTMS: Focal TMS was delivered by a MAGSTIM Super Rapid stimulator (Magstim Co, Whitland, Dyfed, U.K) and applied through a focal figure-of-eight magnetic coil (each wing 70 mm in diameter). The optimal position of the magnetic coil for eliciting a MEP in the right abductor pollicis brevis (APB) was determined by holding the coil tangential to the scalp, and moving it in small steps over the presumed area of the left primary motor cortex at a slightly suprathreshold stimulus intensity. The coil was always held horizontally with the handle pointing backward and laterally at 45 degrees from the midline. This position was marked with a pen on a reusable latex swimming cap in order to assure constant placement of the coil throughout the visits. Stimulus intensity and threshold values were expressed as percent of the maximal stimulator output.\nResting Motor Threshold (RMT): Surface electromyographic (EMG) was recorded from the APB using 9-mm Ag—AgCl electrodes in a belly-tendon montage. The placement of electrodes on the thumb and hand was marked with a pen for exact re-placement in consecutive visits on the same day. The raw EMG signal was amplified by a factor of 100 gain and band-pass filtered, […] with a High Performance Band pass Filter Model V-7548 (LAB Linc. Co). The EMG was recorded on a G3 Macintosh with MacCRO (version 2.1).\nRMT was determined in the resting APB in 4 steps: In step one and step three, thresholds were approached from a slightly suprathreshold intensity by reducing the stimulus intensity in 1% steps with a 5 sec interval between pulses, whereas in steps two and four, thresholds were approached from a slightly subthreshold intensity by increasing the stimulus intensity. RMT was defined as the first intensity that produced a MEP of greater than 50 μV in 3 out of 6 trials in the resting target muscle. A mean RMT for baseline or after medication was calculated by averaging the four values. Determination of the RMT using this technique usually lasted 30 minutes.\nThe percent change of RMT=100[(post-dose RMT−pre-dose RMT)/pre-dose RMT]. Paired Student's t tests (two tailed) were performed for the percent change of RMT between LTG and placebo. Wilcoxon nonparametric tests were performed for the number of active voxels in the region of interests (ROI) between LTG and placebo. We performed Pearson correlations between the percent change of RMT and the change of active voxel number. Two-way analysis of variance (ANOVA) was performed for % BOLD signal change in the different intensity stimulation and the different medication conditions. All statistical analyses were performed using SPSS 10.0 (Statistical Product and Service Solutions Inc, Chicago Ill.)."}, "[2]": {"conditions": "single oral dose of 325 mg of LTG; transiently (for 3 hours); cited from earlier work"}, "[3]": {"test_system": "motor corticospinal pathways", "conditions": "volunteers or patients with complex partial seizures; cited from earlier work"}}, "note": "“And” between values parts separate entries of the source, which are not always exact repeats. Equal values may be shown once.", "data": [{"smiles": "Nc1nnc(-c2cccc(Cl)c2Cl)c(N)n1", "note": "[LTG, Lamotrigine]", "values": [{"measurement": "RMT Post-3 hours", "setting": "[1]; LTG visit, 3 hours after single oral dose of 325 mg LTG, individual subjects 1-12", "result": "75.25% of machine maximum output (Magstim) and 66.25% of machine maximum output (Magstim) and 66.50% of machine maximum output (Magstim) and 99.00% of machine maximum output (Magstim) and 55.25% of machine maximum output (Magstim) and 100.00% of machine maximum output (Magstim) (2×) and 101.00% of machine maximum output (Magstim) (2×) and 64.50% of machine maximum output (Magstim) and 68.25% of machine maximum output (Magstim) and 95.25% of machine maximum output (Magstim)"}, {"measurement": "RMT Post-3 hours, mean", "setting": "[1]; LTG visit, 3 hours after single oral dose of 325 mg LTG, mean of 12 subjects", "result": "82.69% of machine maximum output (Magstim)"}, {"measurement": "RMT % Change from baseline", "setting": "[1]; LTG visit, post-dose 3 hours vs pre-dose same day, individual subjects 1-12", "result": "8.27% and 28.02% and 7.26% and 30.26% and 1.38% and 3.63% and 26.10% and 19.53% and 8.86% and 15.76% and 12.81% and 16.87%"}, {"measurement": "RMT % Change from baseline, mean", "setting": "[1]; LTG visit, post-dose 3 hours vs same day baseline, mean of 12 subjects, placebo 0.6%", "result": 14.9, "unit": "%"}, {"measurement": "TMS resting motor threshold compared with placebo", "setting": "[1]; all 12 subjects, day subjects received LTG", "result": "significant increase"}, {"measurement": "serum concentrations after single oral dose", "setting": "[2]", "result": "equal to steady state levels at clinically relevant chronic doses"}, {"measurement": "resting motor threshold (RMT)", "setting": "[3]", "result": "significantly increased"}]}]}
